Test results as given in ChEMBL document CHEMBL1201862, “PubChem BioAssay data set” (2004).
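Five compound concentrations were applied to cells in 96-well plates for 48 hours; endpoints were derived by simple linear interpolation of the resulting dose-response curve. GI50 marks 50% less growth.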 The source made the active and inactive calls. Cut-off read from the data, not from the text of the source: active = GI50 up to about 1.1 µM and inactive = higher.

Experiments:
Assay in all cases: NCI tumour cell line growth inhibition, 48 h
HCT-116 = test system: HCT-116
TK-10 = test system: TK-10
SK-MEL-2 = test system: SK-MEL-2
786-0 = test system: 786-0
DU-145 = test system: DU-145
ACHN = test system: ACHN
A549 = test system: A549
UACC-62 = test system: UACC-62
Hs-578T = test system: Hs-578T
PC-3 = test system: PC-3
CAKI-1 = test system: CAKI-1
M14 = test system: M14
T47D = test system: T47D
NCI-H522 = test system: NCI-H522
UO-31 = test system: UO-31
EKVX = test system: EKVX
U-251 = test system: U-251
HCC 2998 = test system: HCC 2998
OVCAR-3 = test system: OVCAR-3
NCI/ADR-RES = test system: NCI/ADR-RES

Measured: GI50

CSc1nc(-c2ccccc2)[nH]c(=O)n1
inactive: HCT-116 > 100 µM | TK-10 > 100 µM | SK-MEL-2 > 100 µM | 786-0 > 100 µM | DU-145 > 100 µM | ACHN > 100 µM | A549 > 100 µM | UACC-62 > 100 µM | Hs-578T > 100 µM | PC-3 > 100 µM | CAKI-1 > 100 µM | M14 > 100 µM | T47D > 100 µM | NCI-H522 > 100 µM | UO-31 > 100 µM | EKVX > 100 µM | U-251 > 100 µM | HCC 2998 > 100 µM | OVCAR-3 > 100 µM | NCI/ADR-RES > 100 µM

Cc1cc(C)c(C#N)c(SC(=S)NC(=O)c2ccccc2)n1
inactive: HCT-116 > 100 µM | TK-10 > 100 µM | SK-MEL-2 > 100 µM | 786-0 > 100 µM | DU-145 > 100 µM | ACHN > 100 µM | A549 > 100 µM | UACC-62 > 100 µM | Hs-578T > 100 µM | PC-3 > 100 µM | CAKI-1 > 100 µM | M14 > 100 µM | T47D > 100 µM | NCI-H522 > 100 µM | UO-31 > 100 µM | EKVX > 100 µM | U-251 > 100 µM | HCC 2998 > 100 µM | NCI/ADR-RES > 100 µM

CC(C)(C)OC(=O)CN1CCNCCN(CC(=O)OC(C)(C)C)CC1
inactive: HCT-116 > 100 µM | TK-10 > 100 µM | SK-MEL-2 > 100 µM | 786-0 > 100 µM | DU-145 > 100 µM | ACHN > 100 µM | A549 > 100 µM | UACC-62 > 100 µM | Hs-578T > 100 µM | PC-3 > 100 µM | CAKI-1 > 100 µM | M14 > 100 µM | T47D > 100 µM | NCI-H522 56.9 µM | UO-31 > 100 µM | EKVX > 100 µM | HCC 2998 40.7 µM | OVCAR-3 > 100 µM | NCI/ADR-RES > 100 µM

CC(C)C1OC(N)=C(C#N)C1(C#N)C#N (configuration not stated)
inactive: HCT-116 26.3 µM | TK-10 83.4 µM | SK-MEL-2 > 100 µM | 786-0 29.4 µM | DU-145 51.3 µM | ACHN 36.9 µM | A549 > 100 µM | UACC-62 32.5 µM | Hs-578T 53.7 µM | PC-3 > 100 µM | CAKI-1 3.79 µM | M14 60.7 µM | T47D 67.3 µM | NCI-H522 34.6 µM | UO-31 33.1 µM | EKVX 62.2 µM | U-251 54.1 µM | HCC 2998 24.5 µM | NCI/ADR-RES 58.1 µM
